Patent US12606548B2, “Fungicidal oxadiazoles” (FMC CORPORATION, priority 2019, dated 2026)

What was measured:
Phakopsora pachyrhizi = assay: Test A: test suspension sprayed on soybean seedlings, inoculated next day with Phakopsora pachyrhizi (Asian soybean rust), visual disease rating; assay type: in vivo; conditions: for Test A rating (% disease control): relative to the controls
Description: General protocol for preparing test suspensions for Tests A-C: the test compounds were first dissolved in acetone in an amount equal to 3% of the final volume and then suspended at the desired concentration (in ppm) in acetone and purified water (50/50 mix by volume) containing 250 ppm of the surfactant PEG400 (polyhydric alcohol esters). The resulting test suspensions were then used in Tests A-C. The test suspension was sprayed to the point of run-off on soybean seedlings. The following day the seedlings were inoculated with a spore suspension of Phakopsora pachyrhizi (the causal agent of Asian soybean rust) and incubated in a saturated atmosphere at 22° C., for 24 h and then moved to a growth chamber at 22° C., for 8 days, after which time visual disease ratings were made. […] A dash (-) indicates the compound was not tested. The test suspensions were sprayed at the concentration listed in the column “Rate in ppm”, unless otherwise indicated.

[1] = tested on: Puccinia recondita f. sp. tritici; assay: Test C: test suspension sprayed on wheat seedlings, inoculated next day with Puccinia recondita f. sp. tritici (wheat leaf rust), visual disease rating; assay type: in vivo; conditions: for Test C rating (% disease control): relative to the controls
Description: General protocol for preparing test suspensions for Tests A-C: the test compounds were first dissolved in acetone in an amount equal to 3% of the final volume and then suspended at the desired concentration (in ppm) in acetone and purified water (50/50 mix by volume) containing 250 ppm of the surfactant PEG400 (polyhydric alcohol esters). The resulting test suspensions were then used in Tests A-C. The test suspension was sprayed to the point of run-off on wheat seedlings. The following day the seedlings were inoculated with a spore suspension of Puccinia recondita f. sp. tritici; (the causal agent of wheat leaf rust) and incubated in a saturated atmosphere at 20° C., for 24 h, and then moved to a growth chamber at 20° C., for 6 days, after which time visual disease ratings were made. […] A dash (-) indicates the compound was not tested. The test suspensions were sprayed at the concentration listed in the column “Rate in ppm”, unless otherwise indicated.

Compound	Test A rating (% disease control) (Phakopsora pachyrhizi; Rate 10 ppm test suspension) [%]	Test C rating (% disease control) ([1]; Rate 10 ppm test suspension) [%]	further results
1-[[4-[5-(trifluoromethyl)-1,2,4-oxadiazol-3-yl]phenyl]methyl]-1H-pyrazolo[3,4-b]pyridine [Compound 147]	–	–	Test A disease control rating (Phakopsora pachyrhizi; 10 ppm test suspension): 100%; Test C disease control rating ([1]; 10 ppm test suspension): 68%
3-[5-[(4-bromo-1H-pyrazol-1-yl)methyl]-2-thienyl]-5-(trifluoromethyl)-1,2,4-oxadiazole [Compound 71]	–	–	Test A disease control rating (Phakopsora pachyrhizi; 10 ppm test suspension): 100%; Test C disease control rating ([1]; 10 ppm test suspension): 74%
6-chloro-2-[[4-[5-(trifluoromethyl)-1,2,4-oxadiazol-3-yl]phenyl]methyl]-3(2H)-pyridazinone [Compound 4]	–	–	Test A disease control rating (Phakopsora pachyrhizi; 50 ppm test suspension): 100%; Test C disease control rating ([1]; 50 ppm test suspension): 100%
COc1ccc(C(O)c2ccc(-c3noc(C(F)(F)F)n3)cc2)cc1 (racemic) [compound 309]	–	–	Test A disease control rating (Phakopsora pachyrhizi; 50 ppm test suspension): 100%; Test C disease control rating ([1]; 50 ppm test suspension): 68%
CCOC(=O)C1=NOC(Cc2ccc(-c3noc(C(F)(F)F)n3)s2)C1 (racemic) [compound 366]	–	–	Test A disease control rating (Phakopsora pachyrhizi; 50 ppm test suspension): 100%; Test C disease control rating ([1]; 50 ppm test suspension): 100%
O=C(O)C1=NOC(Cc2ccc(-c3noc(C(F)(F)F)n3)s2)C1 (racemic) [compound 367]	–	–	Test A disease control rating (Phakopsora pachyrhizi; 50 ppm test suspension): 96%; Test C disease control rating ([1]; 50 ppm test suspension): 67%
CNC(=O)C1=NOC(Cc2ccc(-c3noc(C(F)(F)F)n3)s2)C1 (racemic) [compound 368]	–	–	Test A disease control rating (Phakopsora pachyrhizi; 50 ppm test suspension): 100%; Test C disease control rating ([1]; 50 ppm test suspension): 100%
CCNC(=O)C1=NOC(Cc2ccc(-c3noc(C(F)(F)F)n3)s2)C1 (racemic) [compound 369]	–	–	Test A disease control rating (Phakopsora pachyrhizi; 50 ppm test suspension): 100%; Test C disease control rating ([1]; 50 ppm test suspension): 100%
C#CCNC(=O)C1=NOC(Cc2ccc(-c3noc(C(F)(F)F)n3)s2)C1 (racemic) [compound 429]	–	–	Test A rating (% disease control) (Phakopsora pachyrhizi; Rate 50 ppm test suspension): 100%; Test C rating (% disease control) ([1]; Rate 50 ppm test suspension): 100%
CCN(CC)C(=O)C1=NOC(Cc2ccc(-c3noc(C(F)(F)F)n3)s2)C1 (racemic) [compound 430]	–	–	Test A rating (% disease control) (Phakopsora pachyrhizi; Rate 50 ppm test suspension): 100%; Test C rating (% disease control) ([1]; Rate 50 ppm test suspension): 100%
CN(C)C(=O)C1=NOC(Cc2ccc(-c3noc(C(F)(F)F)n3)s2)C1 (racemic) [compound 460]	–	–	Test A rating (% disease control) (Phakopsora pachyrhizi; Rate 50 ppm test suspension): 100%; Test C rating (% disease control) ([1]; Rate 50 ppm test suspension): 99%
COCCNC(=O)C1=NOC(Cc2ccc(-c3noc(C(F)(F)F)n3)s2)C1 (racemic) [compound 461]	–	–	Test A rating (% disease control) (Phakopsora pachyrhizi; Rate 50 ppm test suspension): 100%; Test C rating (% disease control) ([1]; Rate 50 ppm test suspension): 100%
CCCOC(=O)c1cnn(C(C)c2ccc(-c3noc(C(F)(F)F)n3)s2)c1 (racemic) [compound 493]	100	100	–
FC(F)(F)c1nc(-c2ccc(Cn3ccc4ncccc43)cc2)no1 [Compound 136, 1-[[4-[5-(trifluoromethyl)-1,2,4-oxadiazol-3-yl]phenyl]methyl]-1H-pyrrolo[3,2-h]pyridine]	–	–	Test A disease control rating (Phakopsora pachyrhizi; 10 ppm test suspension): 100%; Test A disease control rating (Phakopsora pachyrhizi; 50 ppm test suspension): 100%; Test C disease control rating ([1]; 10 ppm test suspension): 68%; Test C disease control rating ([1]; 50 ppm test suspension): 94%
COC(=O)c1ccc2c(c1)nnn2Cc1ccc(-c2noc(C(F)(F)F)n2)cc1 [compound 22]	–	–	Test A disease control rating (Phakopsora pachyrhizi; 10 ppm test suspension): 100%; Test C disease control rating ([1]; 10 ppm test suspension): 96%
CCOC(=O)c1cc(C)n(Cc2ccc(-c3noc(C(F)(F)F)n3)cc2)n1 [compound 110]	–	–	Test A disease control rating (Phakopsora pachyrhizi; 10 ppm test suspension): 100%; Test C disease control rating ([1]; 10 ppm test suspension): 91%
COCCNC(=O)c1cc(C)n(Cc2ccc(-c3noc(C(F)(F)F)n3)cc2)n1 [compound 183]	–	–	Test A disease control rating (Phakopsora pachyrhizi; 10 ppm test suspension): 100%; Test C disease control rating ([1]; 10 ppm test suspension): 100%
COC(=O)c1cnn(Cc2ccc(-c3noc(C(F)(F)F)n3)s2)c1 [compound 188]	–	–	Test A disease control rating (Phakopsora pachyrhizi; 10 ppm test suspension): 100%; Test C disease control rating ([1]; 10 ppm test suspension): 100%
O=C(NCCCl)c1coc(Cc2ccc(-c3noc(C(F)(F)F)n3)cc2)n1 [compound 204]	–	–	Test A disease control rating (Phakopsora pachyrhizi; 10 ppm test suspension): 100%; Test C disease control rating ([1]; 10 ppm test suspension): 100%
CN(CC#N)C(=O)c1cnn(Cc2ccc(-c3noc(C(F)(F)F)n3)cc2)c1 [compound 379]	100	97	–
CCONC(=O)c1cnn(Cc2ccc(-c3noc(C(F)(F)F)n3)cc2)c1 [compound 380]	100	100	–
Nc1cnn(Cc2ccc(-c3noc(C(F)(F)F)n3)cc2)c1 [compound 381]	0	0	–
O=[N+]([O-])c1cnn(Cc2ccc(-c3noc(C(F)(F)F)n3)cc2)c1 [compound 382]	100	96	–
FC(F)(F)c1nc(-c2ccc(Cn3cc(I)cn3)cc2)no1 [compound 383]	71	68	–
CCON=Cc1cnn(Cc2ccc(-c3noc(C(F)(F)F)n3)cc2)c1 [compound 384]	100	100	–

Compound	Test A rating (% disease control) (Phakopsora pachyrhizi; Rate 10 ppm test suspension) [%]	Test C rating (% disease control) ([1]; Rate 10 ppm test suspension) [%]	further results
CCCON=Cc1cnn(Cc2ccc(-c3noc(C(F)(F)F)n3)cc2)c1 [compound 385]	100	100	–
C=CCON=Cc1cnn(Cc2ccc(-c3noc(C(F)(F)F)n3)cc2)c1 [compound 386]	100	100	–
C#CCON=Cc1cnn(Cc2ccc(-c3noc(C(F)(F)F)n3)cc2)c1 [compound 387]	100	99	–
CC(C)ON=Cc1cnn(Cc2ccc(-c3noc(C(F)(F)F)n3)cc2)c1 [compound 388]	100	100	–
CC(=O)NN=Cc1cnn(Cc2ccc(-c3noc(C(F)(F)F)n3)cc2)c1 [compound 389]	100	100	–
CS(=O)(=O)CCOC(=O)c1cnn(Cc2ccc(-c3noc(C(F)(F)F)n3)cc2)c1 [compound 390]	100	100	–
CCOC(CC(=O)c1cnn(Cc2ccc(-c3noc(C(F)(F)F)n3)cc2)c1)OCC [compound 391]	100	100	–
CN(C)C(=O)c1cnn(CCCc2ccc(-c3noc(C(F)(F)F)n3)cc2)c1 [compound 406]	100	93	–
Nc1ncnc2c1cnn2Cc1ccc(-c2noc(C(F)(F)F)n2)cc1 [compound 407]	100	100	–
FC(F)(F)c1nc(-c2ccc(Cn3ncc4ncccc43)cc2)no1 [compound 408]	100	100	–
FC(F)(F)c1nc(-c2ccc(Cn3cc4ncccc4n3)cc2)no1 [compound 409]	100	100	–
CCCCOC(=O)c1cnn(Cc2ccc(-c3noc(C(F)(F)F)n3)cc2)c1 [compound 410]	100	100	–
O=C(OCC1CC1)c1cnn(Cc2ccc(-c3noc(C(F)(F)F)n3)cc2)c1 [compound 411]	100	100	–
O=C(OCc1ccccc1)c1cnn(Cc2ccc(-c3noc(C(F)(F)F)n3)cc2)c1 [compound 412]	100	100	–
FC(F)(F)c1nc(-c2ccc(Cn3ncc4cc(Br)cnc43)cc2)no1 [compound 413]	100	68	–
FC(F)(F)c1nc(-c2ccc(Cn3cc4cc(Br)cnc4n3)cc2)no1 [compound 414]	100	100	–
CNC(=O)c1cnn(CCCc2ccc(-c3noc(C(F)(F)F)n3)cc2)c1 [compound 415]	100	96	–
CCCOC(=O)c1cnn(Cc2ccc3cc(-c4noc(C(F)(F)F)n4)ccc3c2)c1 [compound 416]	–	–	Test A rating (% disease control) (Phakopsora pachyrhizi; Rate 50 ppm test suspension): 77%; Test C rating (% disease control) ([1]; Rate 50 ppm test suspension): 0%
N#Cc1cccn(Cc2ccc(-c3noc(C(F)(F)F)n3)cc2)c1=O [compound 417]	100	100	–
CCOC(=O)c1cncn(Cc2ccc(-c3noc(C(F)(F)F)n3)cc2)c1=O [compound 418]	100	99	–
CCOC(=O)c1cn(Cc2ccc(-c3noc(C(F)(F)F)n3)cc2)c(=O)cn1 [compound 419]	96	99	–
COC(=O)c1ccc(=O)n(Cc2ccc(-c3noc(C(F)(F)F)n3)cc2)c1 [compound 420]	100	100	–
COc1ccn(Cc2ccc(-c3noc(C(F)(F)F)n3)cc2)c(=O)c1 [compound 421]	100	100	–
COC(=O)c1cccn(Cc2ccc(-c3noc(C(F)(F)F)n3)cc2)c1=O [compound 422]	90	93	–
